TGI data for 13 compounds are collected here from PubChem BioAssay (NCI).

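1) Cells in 96-well plates. 2) Compound, 48 h, 5 concentrations. 3) Linear interpolation between surrounding doses. 4) Unreached endpoint = highest concentration. TGI denotes the concentration required for complete inhibition of growth.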

Common to all, as to assay: inhibition of tumour cell growth, NCI panel, 48 h
The subject of assay [1] is MDA-MB-231 breast.
The subject of assay [2] is A549 NSCLC.
In assay [3] the test system is NCI-H522 lung.
The test system of assay [4] is COLO 205 colon.
In assay [5] the test system is SF-539 CNS.
Assay [6] concerns SK-MEL-28 melanoma.
The subject of assay [7] is SF-295 CNS.
In assay [8] the test system is TK-10 renal.
Assay [9] concerns PC-3 prostate.
The subject of assay [10] is MDA-N.
Assay [11] deals with K-562 leukemia.
The test system of assay [12] is LOX IMVI melanoma.
The subject of assay [13] is HT29 colon.
Assay [14] concerns SW-620 colon.
In assay [15] the test system is M14 melanoma.

`CCOC(=O)NC(Nc1cccc(F)c1)(C(F)(F)F)C(F)(F)F`: the TGI in assay [1], in [2], in [3], in [4], in assay [5] and in assay [6] was above 100 µM each time. For the same compound, the TGI in assay [7], in [8], in assay [9], in assay [10], in assay [11] and in [12] was above 100 µM throughout. Further, the TGI in assay [13], in assay [14] and in [15] was above 100 µM in each case.

For `O=C1CCCSCCCC(=O)CCCSCCC1`, the TGI in assay [1], in [2], in assay [3], in assay [4], in [5] and in assay [6] was above 100 µM throughout. The TGI in assay [7], in [8], in assay [9], in assay [10], in [11] and in assay [12] was above 100 µM throughout. Also, the TGI in [13], in assay [14] and in [15] was above 100 µM in each case.

Consider `COc1ccc(/C=C/C(=N/NC(=O)N/N=C(/C=C/c2ccc(OC)cc2)C(C)C)C(C)C)cc1`, for which the TGI in assay [1], in [2], in assay [3], in [4], in assay [5] and in [6] was above 100 µM in each case. Moreover, the TGI in assay [7], in assay [8], in assay [9], in assay [10], in assay [11] and in assay [12] was above 100 µM in each case. Besides, the TGI in assay [13], in assay [14] and in [15] was above 100 µM each time.

Consider `Cc1cccc(/C=N/NC(=S)NC2CCCCC2)n1`, for which the TGI in [1] was above 100 µM; in [2], above 88.9 µM; in assay [3], above 64.3 µM; in [4], above 100 µM; in assay [5], 88.6 µM; in assay [6], above 100 µM. For the same compound, the TGI in [7] is above 100 µM; in assay [8], above 100 µM; in assay [9] it was above 100 µM; in assay [10], above 93.1 µM; in assay [11], above 54.7 µM; in assay [12], 99 µM. For the same compound, the TGI in assay [13] was 42.1 µM; in assay [14], above 100 µM; in assay [15] it was 61.6 µM.

`O=C(c1c(F)c(F)c(F)c(F)c1F)n1c(=O)[nH]c2ccccc21`: the TGI turned out to be 26.8 µM in assay [1]; 32.5 µM in [2]; 13.6 µM in [3]; 25.7 µM in assay [4]; 26.7 µM in assay [5]; 28.3 µM in [6]. The TGI turned out to be 30.6 µM in [7]; 18.5 µM in [8]; 21.8 µM in assay [9]; 20.5 µM in assay [10]; 14.9 µM in [11]; 14.9 µM in [12]. Further, the results for the TGI in [13], in assay [14] and in assay [15] were 18 µM, 16.1 µM and 22.1 µM, respectively.

Consider `COc1nc(N)nc2c1n(C)c[n+]2C`, for which the TGI in assay [1], in assay [2], in [3], in [4], in assay [5] and in assay [6] was above 100 µM in each case. For the same compound, the TGI in [7], in [8], in assay [9], in assay [10], in assay [11] and in [12] was above 100 µM in each case. The TGI in [13], in [14] and in [15] was above 100 µM each time.

Regarding `NS(=O)(=O)c1ccc(NC(=S)/N=C/c2c(O)c3ccccc3[nH]c2=O)cc1`, the TGI in [1], in assay [2], in assay [3], in [4], in assay [5] and in [6] was above 100 µM in each case. The TGI in [7], in [8], in assay [9], in assay [10], in assay [11] and in assay [12] was above 100 µM in each case. For the same compound, the TGI in assay [13], in [14] and in assay [15] was above 100 µM throughout.

As to `Cc1cccc2c1CC(C1OC(=O)c3c(C)cccc31)C2=O` (stereo not given), the TGI in assay [1], in assay [2], in assay [3], in [4], in assay [5] and in assay [6] was above 100 µM in each case. Also, the TGI in [7], in assay [8], in assay [9], in assay [10], in assay [11] and in [12] was above 100 µM in each case. In addition, the TGI in assay [13], in [14] and in [15] was above 100 µM each time.

As to `CC(=O)O[C@H]1CC[C@@]2(C)C(=CC[C@H]3[C@@H]4C[C@H](N5CCN(C)CC5)[C@H](OC(C)=O)[C@@]4(C)CC[C@@H]32)C1`, the TGI in assay [1] came out at 34.3 µM; in assay [2], 36 µM; in assay [3] it was 34.9 µM; in assay [4], 32.8 µM; in assay [5] it was 13.7 µM; in [6], 26.1 µM. Also, the TGI in assay [7] is 45.7 µM; in assay [8] it was above 100 µM; in [9] it was 32.5 µM; in [10], 26.5 µM; in assay [11], 4.07 µM; in assay [12], 7.83 µM. Besides, the TGI in assay [13] was found to be 12.8 µM; in assay [14], 29.8 µM; in [15], 8.2 µM.

For the compound `Nc1ccc2c(c1)N(C(=O)CCCC(=O)N1CC(CCl)c3ccc(N)cc31)CC2CCl` (stereo not given), the TGI is 8.76 µM in [1]; above 50 µM in [2]; 0.286 µM in assay [3]; 2.1 µM in [4]; 11.3 µM in [5]; above 14.4 µM in [6]. Further, the TGI in [7] is above 50 µM; in assay [8], above 48.1 µM; in [9], 16.4 µM; in assay [10], 3.82 µM; in assay [11] it was above 15.8 µM; in assay [12], 11.3 µM. In addition, the TGI was above 13.5 µM in [13], above 50 µM in assay [14] and 4.7 µM in [15].

Regarding `CN(C)c1ccc(/C=C(\NC(=O)c2ccccc2)c2nc3ccccc3c(=O)o2)cc1`, the TGI in assay [1], in assay [2], in [3], in assay [4], in assay [5] and in [6] was above 100 µM throughout. In addition, the TGI in [7], in [8], in [9], in [10], in assay [11] and in [12] was above 100 µM throughout. Also, the TGI in assay [13], in assay [14] and in assay [15] was above 100 µM in each case.

Take `CCCCCCCCCCCCOCCCCCCCCC/C=C/c1ccc2c(c1)OCCOCCOCCOCCO2`: the TGI in assay [1] is 37.7 µM; in assay [2], 36.6 µM; in assay [3], 28.3 µM; in [4], 35.2 µM; in assay [5], 31.4 µM; in [6], above 100 µM. Also, the TGI in [7] is 34.2 µM; in [8] it was 41.5 µM; in [9] it was 39.9 µM; in [10], 36.2 µM; in assay [11], above 100 µM; in assay [12], 38.9 µM. The TGI in assay [13] is 45.4 µM; in assay [14], above 100 µM; in [15] it was 88.9 µM.

`COC(=O)CC(SCCO)SCCO`: the TGI in assay [1], in [2], in assay [3], in assay [4], in [5] and in assay [6] was above 100 µM throughout. Moreover, the TGI in assay [7], in [8], in assay [9], in assay [10], in assay [11] and in [12] was above 100 µM each time. In addition, the TGI in assay [13], in [14] and in assay [15] was above 100 µM each time.
